pIC50: −log10 of the molar value.
Assays:
Format in all cases: cell-based
[1] = system: pAKT in T47D (PI3Kα H1047R mutant) cells; assay: Inhibition of pAKT (alphaLISA Surefire Ultra AKT 1/2/3 pS473) in T47D cells; conditions: Homo sapiens; T47D (PI3Kα H1047R mutant) cells, 24 hr compound incubation, alphaLISA pS473; read-out: T47D (H1047R) pAKT 24 hr (IC50)
Procedure, shortened: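 AlphaLISA read-out of AKT pS473 in lysates after roughly 24 h compound exposure at 37° C in HBSS. Ten concentrations, 1:4 dilutions from a 10.4 μm top dose. Percent of control uses alpelisib at 3.125 μm as background and DMSO as vehicle; four-parameter curve gives IC50.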

[2] = system: pAKT in SKBR3 (PI3Kα wild type) cells; assay: Inhibition of pAKT (alphaLISA Surefire Ultra AKT 1/2/3 pS473) in SKBR3 cells; conditions: Homo sapiens, SK-BR-3, approximately 24 hours treatment, read-out: SKBR3 (WT) pAKT IC50
Method: The ability of a compound of Formula (I) to inhibit the formation of pAKT was measured using alphaLISA Surefire Ultra AKT 1/2/3 (pS473) Assay Kit (#ALSU-PAKT-B50K) was obtained from Perkin Elmer (Waltham, MA).
To prepare assay plates for pAKT alphaLISA assays, cells were trypsinized, resuspended in fresh media, and viable cells were counted utilizing trypan blue exclusion. Prior to seeding, cells were washed with PBS and resuspended in HBSS (Gibco, #14025092). T47D (12,000/w), SKBR3 (12,000/w), or MKN1 (24,000/w) cells were seeded at 12 μl per well in a solid white flat bottom 384 cell culture plate (Perkin Elmer #6007680).
Immediately after seeding, cells were dosed using an Echo Liquid Handler (Beckman Coulter) with compounds at a 10.4 μm starting concentration and serially diluted (1:4) for a total of 10 concentrations. […] Plates were then imaged the following day using a CLARIOstar microplate reader (BMG Labtech, Germany).
Percent of control values were calculated by subtracting the average signal from the positive control (alpelisib) treated wells from all treated wells (including DMSO control wells) and then divided by the average signal from the vehicle DMSO treated control wells. Percent of vehicle control values were plotted as log(inhibitor) vs. response—Variable slope (four parameters) for curve fitting and IC50 values were determined using XLfit.

[3] = system: T47D (PI3Kα H1047R mutant) cells; assay: Cell viability (CellTiter-Glo 2.0) in T47D cells; conditions: Homo sapiens, T47D, 72 h, approximately 72 hours
Procedure, shortened: (§1)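 IC50 values derive from four-parameter fits of CellTiter-Glo luminescence expressed as percent of vehicle control. Cells (T47D or SKBR3) were plated at 1000/well the day before dosing and incubated about 72 h at 37° C with a 10-point, 1:4 series starting at 10 μm.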

[4] = system: SKBR3 (PI3Kα wild type) cells; assay: Cell viability (CellTiter-Glo 2.0) in SKBR3 cells; conditions: Homo sapiens, SK-BR-3; SKBR3 (PI3Kα wild type) cells, approximately 72 hours, CellTiter-Glo 2.0; read-out: SKBR3 (WT) Viability IC50
Procedure, shortened: as §1

pIC50 [1]	pIC50 [2]	pIC50 [3]	pIC50 [4]	Structure (SMILES)
7.41	< 5.00	6.34	< 5.00	Cc1cc(C(C)Nc2ccccc2C(=O)O)c2nc(N3CCCCC3)c(C#N)nc2c1 (stereo not shown) [Example 1, 2-((1-(2-cyano-7-methyl-3-(piperidin-1-yl)quinoxalin-5-yl)ethyl)amino)benzoic acid]
9.01	–	7.34	5.47	Cc1cc([C@@H](C)Nc2ccc(Cl)nc2C(=O)O)c2nc(N3C[C@H](F)C[C@H]3C)c(C#N)nc2c1 [Example 246C, 6-chloro-3-(((R)-1-(2-cyano-3-((2R,4R)-4-fluoro-2-methylpyrrolidin-1-yl)-7-methylquinoxalin-5-yl)ethyl)amino)picolinic acid]
8.17	–	6.80	5.21	Cc1cc([C@@H](C)Nc2ccc(Cl)nc2C(=O)O)c2nc(N3C[C@@H](F)C[C@@H]3C)c(C#N)nc2c1 [Example 246D, 6-chloro-3-(((R)-1-(2-cyano-3-((2S,4S)-4-fluoro-2-methylpyrrolidin-1-yl)-7-methylquinoxalin-5-yl)ethyl)amino)picolinic acid]
8.77	–	7.80	5.18	Cc1cc([C@@H](C)Nc2ccc(Cl)nc2C(=O)O)c2nc(N3CCC4(CC3)COC4)c(C#N)nc2c1 [Example 249, (R)-6-chloro-3-((1-(2-cyano-7-methyl-3-(2-oxa-7-azaspiro[3.5]nonan-7-yl)quinoxalin-5-yl)ethyl)amino)picolinic acid]
8.92	–	7.43	5.31	Cc1cc([C@@H](C)Nc2ccc(Cl)nc2C(=O)O)c2nc(N3CCC4(CCO4)CC3)c(C#N)nc2c1 [Example 250, (R)-6-chloro-3-((1-(2-cyano-7-methyl-3-(1-oxa-7-azaspiro[3.5]nonan-7-yl)quinoxalin-5-yl)ethyl)amino)picolinic acid]
8.96	–	7.96	< 5.00	Cc1cc([C@@H](C)Nc2ccc(Cl)nc2C(=O)O)c2nc(N3CC4(CCOC4)C3)c(C#N)nc2c1 [Example 251, (R)-6-chloro-3-((1-(2-cyano-7-methyl-3-(6-oxa-2-azaspiro[3.4]octan-2-yl)quinoxalin-5-yl)ethyl)amino)picolinic acid]
8.57	–	6.92	5.28	Cc1cc([C@@H](C)Nc2ccc(Cl)nc2C(=O)O)c2nc(N3CC4(CCCO4)C3)c(C#N)nc2c1 [Example 252, (R)-6-chloro-3-((1-(2-cyano-7-methyl-3-(5-oxa-2-azaspiro[3.4]octan-2-yl)quinoxalin-5-yl)ethyl)amino)picolinic acidS]
8.43	–	6.77	< 5.00	Cc1cc([C@@H](C)Nc2ccc(Cl)nc2C(=O)O)c2nc(N3CC4(C3)CC(F)(F)C4)c(C#N)nc2c1 [Example 255, (R)-6-chloro-3-((1-(2-cyano-3-(6,6-difluoro-2-azaspiro[3.3]heptan-2-yl)-7-methylquinoxalin-5-yl)ethyl)amino)picolinic acid]
9.96	–	6.51	< 5.00	Cc1cc([C@@H](C)Nc2ccc(Cl)nc2C(=O)O)c2nc(N3CC4(CCC4(F)F)C3)c(C#N)nc2c1 [Example 256, (R)-6-chloro-3-((1-(2-cyano-3-(5,5-difluoro-2-azaspiro[3.3]heptan-2-yl)-7-methylquinoxalin-5-yl)ethyl)amino)picolinic acid]
8.52	–	7.07	5.06	Cc1cc([C@@H](C)Nc2ccc(Cl)nc2C(=O)O)c2nc(N3CC4(CC(F)C4)C3)c(C#N)nc2c1 [Example 258, (R)-6-chloro-3-((1-(2-cyano-3-(6-fluoro-2-azaspiro[3.3]heptan-2-yl)-7-methylquinoxalin-5-yl)ethyl)amino)picolinic acid]
8.82	–	7.12	< 5.00	Cc1cc([C@@H](C)Nc2ccc(Cl)nc2C(=O)O)c2nc(N3CC4(CC(O)C4)C3)c(C#N)nc2c1 [Example 259, (R)-6-chloro-3-((1-(2-cyano-3-(6-hydroxy-2-azaspiro[3.3]heptan-2-yl)-7-methylquinoxalin-5-yl)ethyl)amino)picolinic acid]
8.49	–	7.10	< 5.00	Cc1cc([C@@H](C)Nc2ccc(Cl)nc2C(=O)O)c2nc(N3CCC[C@H]([C@H](C)O)C3)c(C#N)nc2c1 [Example 261A, 6-chloro-3-(((R)-1-(2-cyano-3-((S)-3-((S)-1-hydroxyethyl)piperidin-1-yl)-7-methylquinoxalin-5-yl)ethyl)amino)picolinic acid]
8.59	–	7.01	< 5.00	Cc1cc([C@@H](C)Nc2ccc(Cl)nc2C(=O)O)c2nc(N3CCC[C@H]([C@@H](C)O)C3)c(C#N)nc2c1 [Example 261B, 6-chloro-3-(((R)-1-(2-cyano-3-((S)-3-((R)-1-hydroxyethyl)piperidin-1-yl)-7-methylquinoxalin-5-yl)ethyl)amino)picolinic acid]
8.68	–	7.11	< 5.00	Cc1cc([C@@H](C)Nc2ccc(Cl)nc2C(=O)O)c2nc(N3CCC[C@@H]([C@H](C)O)C3)c(C#N)nc2c1 [Example 261C, 6-chloro-3-(((R)-1-(2-cyano-3-((R)-3-((S)-1-hydroxyethyl)piperidin-1-yl)-7-methylquinoxalin-5-yl)ethyl)amino)picolinic acid]
8.92	–	7.12	< 5.00	Cc1cc([C@@H](C)Nc2ccc(Cl)nc2C(=O)O)c2nc(N3CCC[C@@H]([C@@H](C)O)C3)c(C#N)nc2c1 [Example 261D, 6-chloro-3-(((R)-1-(2-cyano-3-((R)-3-((R)-1-hydroxyethyl)piperidin-1-yl)-7-methylquinoxalin-5-yl)ethyl)amino)picolinic acid]
8.74	–	7.23	5.31	Cc1cc([C@@H](C)Nc2ccc(Cl)nc2C(=O)O)c2nc(N3CCCC(F)(F)CC3)c(C#N)nc2c1 [Example 847, (R)-6-chloro-3-((1-(2-cyano-3-(4,4-difluoroazepan-1-yl)-7-methylquinoxalin-5-yl)ethyl)amino)picolinic acid]
8.77	–	7.05	5.11	Cc1cc([C@@H](C)Nc2ccc(Cl)nc2C(=O)O)c2nc(N3C[C@H]4CSC[C@H]4C3)c(C#N)nc2c1 [Example 848, 6-chloro-3-(((R)-1-(2-cyano-7-methyl-3-cis-tetrahydro-1h-thieno[3,4-c]pyrrol-5(3H)-ylquinoxalin-5-yl)ethyl)amino)picolinic acid]

Source: patent US20240391882A1 (Mirati Therapeutics, Inc., priority 2023, published 2024)
